Values of other authors in patent publication US20240050950A1, “GRADIENT-BASED MICROFLUIDIC CIRCUIT, DEVICE, AND METHOD FOR PERFORMING AN ASSAY” (priority 2020, published 2024).
Where a name gives a salt, the structure may show the parent alone.

Settings: Table 1, antimicrobial agents/drugs; cited from earlier work

| SMILES | Molar volume [cm^3] |
| --- | --- |
| CN[C@H]1C[C@@H](N)[C@H](O)[C@@H](O[C@@H]2O[C@H](CO)[C@H](O)[C@@H]3OC4(O[C@H]23)O[C@H]([C@@H](N)CO)[C@H](O)[C@H](O)[C@H]4O)[C@@H]1O (some centres unmarked) [Hygromycin B (WK2130000), Hygromycin B] | 315.1 ± 5.0 |
| C[C@H](CCC(=O)O)C[C@H](C)C[C@H](C)C(=O)/C=C(\O)[C@H](C)C[C@H](C)C/C=C/[C@@H](C)[C@@H](O)[C@@H](C)[C@@H](O)C[C@@H]1CC[C@@](C)([C@H]2CC[C@@](C)([C@@H](C)O)O2)O1 [Ionomycin] | 661.0 ± 3.0 |
| Oc1cc(Cl)ccc1Oc1ccc(Cl)cc1Cl [Irgasan] | 194.3 ± 3.0 |
| CO[C@@H]1[C@@H](O[C@@H]2O[C@H](C)[C@@H](O[C@H]3C[C@@](C)(O)[C@@H](OC(=O)CC(C)C)[C@H](C)O3)[C@H](N(C)C)[C@H]2O)[C@@H](CC=O)C[C@@H](C)[C@@H](O)/C=C/C=C/C[C@@H](C)OC(=O)C[C@H]1OC(C)=O [Josamycin] | 684.5 ± 5.0 |
| COC(=O)[C@@]1(O)C[C@H]2O[C@]1(C)n1c3ccccc3c3c4c(c5c6ccccc6n2c5c31)C(=O)NC4 [K-252a] | 278.7 ± 7.0 |
| CC(=O)N1CCN(c2ccc(OCC3COC(Cn4ccnc4)(c4ccc(Cl)cc4Cl)O3)cc2)CC1 (centres unmarked) [Ketoconazole] | 384.9 ± 7.0 |
| C[C@H](N)C(=O)N[C@@H](C)P(=O)(O)O [L-Alanyl-L-1-aminoethylphosphonic acid] | 140.5 ± 3.0 |
| CC(/C=C/C[C@@H](C)/C=C(C)/C=C/[C@@H]1OC(=O)C=C[C@@H]1C)=C\[C@@H](C)C(=O)[C@@H](C)[C@H](O)[C@@H](C)C/C(C)=C/C(=O)O [Leptomycin A] | 487.8 ± 3.0 |
| CCC(=C/[C@H](C)C/C=C/C(C)=C/[C@@H](C)C(=O)[C@@H](C)[C@H](O)[C@@H](C)C/C(C)=C/C(=O)O)/C=C/[C@@H]1OC(=O)C=C[C@@H]1C [Leptomycin B] | 504.3 ± 3.0 |
| c1ccc([C@H]2CN3CCSC3=N2)cc1 [Levamisol (Levamisole), Levamisole] | 154.1 ± 7.0 |
| COC(=O)Nc1nc2ccc(C(=O)c3ccccc3)cc2[nH]1 [Mebendazole] | 212.6 ± 3.0 |
| Cc1ncc([N+](=O)[O-])n1CCO [Metronidazole] | 117.8 ± 7.0 |
| CC[C@H](C)C(=O)O[C@H]1CCC=C2C=C[C@H](C)[C@H](CC[C@@H]3C[C@@H](O)CC(=O)O3)[C@H]21 [Mevastatin] | 343.8 ± 5.0 |
| CO[C@@]12[C@H](COC(N)=O)C3=C(C(=O)C(C)=C(N)C3=O)N1C[C@@H]1N[C@@H]12 [Mitomycin C (Mitomycin), Mitomycin C] | 213.6 ± 5.0 |
| CC[C@@]1([C@@H]2O[C@@H]([C@H]3O[C@@](O)(CO)[C@H](C)C[C@@H]3C)C[C@@H]2C)CC[C@H]([C@]2(C)CC[C@]3(C[C@H](O)[C@@H](C)[C@@H]([C@@H](C)[C@@H](OC)[C@H](C)C(=O)O)O3)O2)O1 [Monensin] | 552.7 ± 5.0 |
| CO[C@@]1(NC(=O)C(C(=O)O)c2ccc(O)cc2)C(=O)N2C(C(=O)O)=C(CSc3nnnn3C)CO[C@@H]21 (some centres unmarked) [Moxalactam (Latamoxef), Moxalactam] | 292.5 ± 7.0 |
| C/C(=C\C(=O)OCCCCCCCCC(=O)O)C[C@@H]1OC[C@H](C[C@@H]2O[C@H]2[C@@H](C)[C@H](C)O)[C@@H](O)[C@H]1O [Mupirocin] | 423.0 ± 3.0 |
| CO/C(=C/C(N)=O)[C@H](C)[C@H](/C=C/c1csc(-c2csc([C@@H](C)/C=C/C=C/C(C)C)n2)n1)OC [Myxothiazol] | 421.0 ± 3.0 |
| CN1C[C@H](O)[C@@H](O)[C@H](O)[C@H]1CO [N-Methyl-1-deoxynojirimycin (1524564), N-Methyl-1-deoxynojirimycin] | 127.0 ± 3.0 |
| CCOc1ccc2ccccc2c1C(=O)N[C@@H]1C(=O)N2[C@@H]1SC(C)(C)[C@@H]2C(=O)O [Nafcillin] | 289.8 ± 5.0 |
| CN(C/C=C/c1ccccc1)Cc1cccc2ccccc12 [Naftifine] | 265.4 ± 3.0 |
| CC[C@@H](C(=O)O)[C@@H]1O[C@@H]([C@@H](C)[C@H](O)[C@H](C)C(=O)[C@H](CC)[C@H]2O[C@]3(C=C[C@@H](O)[C@]4(CC[C@@](C)([C@H]5CC[C@](O)(CC)[C@H](C)O5)O4)O3)[C@H](C)C[C@@H]2C)[C@@H](C)C[C@@H]1C [Narasin] | 650.1 ± 5.0 |
| Cn1cc(NC(=O)c2cc(NC(=O)CN=C(N)N)cn2C)cc1C(=O)NCCC(=N)N [Netropsin (Congocidin, Sinanomycin), Netropsin] | 282.7 ± 7.0 |
| O=C(Nc1ccc([N+](=O)[O-])cc1Cl)c1cc(Cl)ccc1O [Niclosamide] | 202.4 ± 3.0 |
| CO[C@@H]1C[C@@H](C[C@H]2CC[C@H](C)[C@H]([C@@H](C)C(=O)O)O2)O[C@]2(O[C@](C)([C@H]3CC[C@@](C)([C@@H]4O[C@@H]([C@H]5O[C@@](O)(CO)[C@H](C)C[C@@H]5C)C[C@@H]4C)O3)C[C@H]2C)[C@@H]1C [Nigericin] | 607.9 ± 5.0 |
| C[C@@H]([C@H](N)C(=O)N[C@H](C(=O)O)[C@H]1O[C@@H](n2ccc(=O)[nH]c2=O)[C@H](O)[C@@H]1O)[C@H](O)c1ccc(O)cn1 [Nikkomycin] | 300.9 ± 3.0 |
| C[C@@H]1C[C@H]2CC[C@H](O2)[C@H](C)C(=O)O[C@@H](C)C[C@@H]2CC[C@@H](O2)[C@@H](C)C(=O)O[C@H](C)C[C@H]2CC[C@H](O2)[C@H](C)C(=O)O[C@@H](C)C[C@@H]2CC[C@@H](O2)[C@@H](C)C(=O)O1 [Nonactin (Ammonium ionophore), Nonactin] | 707.9 ± 3.0 |

Same assay, conditions: Table 2, anticancer drugs; cited from earlier work

| SMILES | Molar volume [cm^3] |
| --- | --- |
| CC(=O)[C@]1(O)Cc2c(O)c3c(c(O)c2[C@@H](O[C@H]2C[C@H](N)[C@H](O)[C@H](C)O2)C1)C(=O)c1ccccc1C3=O [Idarubicin Hydrochloride] | 317.8 ± 5.0 |
| CC[C@H](Nc1ncnc2[nH]cnc12)c1nc2cccc(F)c2c(=O)n1-c1ccccc1 [Idelalisib (Zydelig), Idelalisib] | 282.2 ± 7.0 |
| O=P1(NCCCl)OCCCN1CCCl (centres unmarked) [Ifex (Ifosfamide), Ifosfamide] | 195.6 ± 5.0 |
| N#Cc1ccnc(N2C(=O)CC[C@H]2C(=O)N(c2cncc(F)c2)[C@H](C(=O)NC2CC(F)(F)C2)c2ccccc2Cl)c1 [Ivosidenib (Tibsovo), Ivosidenib] | 383.5 ± 5.0 |
| C/C(=C\c1csc(C)n1)[C@@H]1C[C@@H]2O[C@]2(C)CCC[C@H](C)[C@H](O)[C@@H](C)C(=O)C(C)(C)[C@@H](O)CC(=O)N1 [Ixabepilone] | 451.5 ± 3.0 |
| CN(C)C(=O)c1cc2cnc(Nc3ccc(N4CCNCC4)cn3)nc2n1C1CCCC1 [Kisqali (Ribociclib), Ribociclib] | 635.1 ± 5.0 |
| CC(C)[C@@H]1NC(=O)[C@H](CCCCN)NC(=O)[C@@H](Cc2c[nH]c3ccccc23)NC(=O)[C@H](Cc2ccc(O)cc2)NC(=O)[C@@H](NC(=O)[C@H](N)Cc2ccc3ccccc3c2)CSSC[C@@H](C(=O)N[C@H](C(N)=O)[C@@H](C)O)NC1=O [Lanreotide Acetate] | 781.0 ± 5.0 |
| O=C(Nc1cnn2ccc(N3CCC[C@@H]3c3cc(F)ccc3F)nc12)N1CC[C@H](O)C1 [Larotrectinib Sulfate (Vitrakvi), Larotrectinib Sulfate] | 274.6 ± 7.0 |
| Nc1cccc2c1CN(C1CCC(=O)NC1=O)C2=O (centres unmarked) [Lenalidomide] | 177.4 ± 3.0 |
| CCNC(=O)[C@@H]1CCCN1C(=O)[C@H](CCCNC(=N)N)NC(=O)[C@H](CC(C)C)NC(=O)[C@@H](CC(C)C)NC(=O)[C@H](Cc1ccc(O)cc1)NC(=O)[C@H](CO)NC(=O)[C@H](Cc1c[nH]c2ccccc12)NC(=O)[C@H](Cc1c[nH]cn1)NC(=O)[C@@H]1CCC(=O)N1 [Leuprolide Acetate), Leuprolide Acetate] | 834.5 ± 7.0 |
| O=NN(CCCl)C(=O)NC1CCCCC1 [Lomustine] | 173.0 ± 7.0 |
| O=C(c1cc(Cc2n[nH]c(=O)c3ccccc23)ccc1F)N1CCN(C(=O)C2CC2)CC1 [Lynparza (Olaparib), Olaparib] | 301.7 ± 7.0 |
| CNNCc1ccc(C(=O)NC(C)C)cc1 [Matulane (Procarbazine Hydrochloride), Procarbazine Hydrochloride] | 213.6 ± 3.0 |
| CC(=O)O[C@]1(C(C)=O)CC[C@H]2[C@@H]3C=C(C)C4=CC(=O)CC[C@]4(C)[C@H]3CC[C@@]21C [Megestrol Acetate] | 333.3 ± 5.0 |
| N[C@@H](Cc1ccc(N(CCCl)CCCl)cc1)C(=O)O [Melphalan] | 231.2 ± 3.0 |
| S=c1nc[nH]c2nc[nH]c12 [Mercaptopurine] | 94.1 ± 3.0 |
| CN(Cc1cnc2nc(N)nc(N)c2n1)c1ccc(C(=O)N[C@@H](CCC(=O)O)C(=O)O)cc1 [Methotrexate] | 295.6 ± 3.0 |
| CO[C@@]12[C@H](COC(N)=O)C3=C(C(=O)C(C)=C(N)C3=O)N1C[C@@H]1N[C@@H]12 [Mitomycin C (Mitomycin), Mitomycin C] | 213.6 ± 5.0 |
| c1cc(CN2CCCNCCNCCCNCC2)ccc1CN1CCCNCCNCCCNCC1 [Mozobil (Plerixafor), Plerixafor] | 522.2 ± 3.0 |
| CCC1=C[C@@H]2CN(C1)Cc1c([nH]c3ccccc13)[C@@](C(=O)OC)(c1cc3c(cc1OC)N(C)[C@H]1[C@@](O)(C(=O)OC)[C@H](OC(C)=O)[C@]4(CC)C=CCN5CC[C@]31[C@@H]54)C2 [Navelbine (Vinorelbine Tartrate), Vinorelbine Tartrate] | 569.7 ± 5.0 |
| CNC(=O)c1cc(Oc2ccc(NC(=O)Nc3ccc(Cl)c(C(F)(F)F)c3)cc2)ccn1 [Nexavar (Sorafenib Tosylate), Sorafenib Tosylate] | 319.4 ± 3.0 |
| CC1(C)NC(=O)N(c2ccc([N+](=O)[O-])c(C(F)(F)F)c2)C1=O [Nilandron (Nilutamide), Nilutamide] | 216.7 ± 3.0 |
| Cc1cn(-c2cc(NC(=O)c3ccc(C)c(Nc4nccc(-c5cccnc5)n4)c3)cc(C(F)(F)F)c2)cn1 [Nilotinib (Tasigna), Nilotinib] | 388.6 ± 7.0 |

Same assay, conditions: Table 2, anticancer drugs; listed as Ribociclib; cited from earlier work

| SMILES | Molar volume [cm^3] |
| --- | --- |
| CN(C)C(=O)c1cc2cnc(Nc3ccc(N4CCNCC4)cn3)nc2n1C1CCCC1 [Kisqali (Ribociclib), Ribociclib] | 311.4 ± 7.0 |

Same assay, conditions: Table 3, antifungal drugs and other molecules; cited from earlier work

| SMILES | Molar volume [cm^3] |
| --- | --- |
| C[C@H]1O[C@H](O[C@H]2[C@H](O)[C@@H](O)[C@@H](O)[C@H](O)[C@@H]2O)[C@@H](N)C[C@@H]1NC(=N)C(=O)O [Kasugamycin] | 192.2 ± 7.0 |
| CC(=O)N1CCN(c2ccc(OCC3COC(Cn4ccnc4)(c4ccc(Cl)cc4Cl)O3)cc2)CC1 (centres unmarked) [Ketoconazole] | 389.4 |
